Assay results taken from publication PMC6409085, “Three odorant-binding proteins are involved in the behavioral response of Sogatella furcifera to rice plant volatiles” (PeerJ, 2019).
Several values for one entry are separate records, joined by “and”; a condition that tells them apart may be missing. Equal values may be shown once.

Tests used:
SfurOBP1 = SfurOBP1 (Sogatella furcifera, UniProt V5T8N5); test: biochemical; type: binding; details: for Fluorescence competitive binding assay, fluorescence intensity: OBP1, three replicate columns
SfurOBP1, sequence (V5T8N5 entry or part of it): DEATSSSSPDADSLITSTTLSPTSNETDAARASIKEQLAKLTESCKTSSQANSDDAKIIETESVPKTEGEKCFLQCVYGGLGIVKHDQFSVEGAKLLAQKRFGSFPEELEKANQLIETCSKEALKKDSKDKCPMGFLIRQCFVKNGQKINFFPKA
How it was run: (§1)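 Fluorescence competitive binding with 1-NPN as reporter: 2.0 µM protein and 2.0 µM 1-NPN in 50 mM Tris-HCl pH 7.4, odorant added at 2–20 µM final. Excitation 337 nm, emission 390–490 nm read 2 min after addition, triplicates. Ki = IC50/(1 + [1-NPN]/K1-NPN).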

SfurOBP11 = SfurOBP11 (Sogatella furcifera, UniProt V5T6E3); test: biochemical; type: binding
SfurOBP11, sequence (V5T6E3 entry or part of it): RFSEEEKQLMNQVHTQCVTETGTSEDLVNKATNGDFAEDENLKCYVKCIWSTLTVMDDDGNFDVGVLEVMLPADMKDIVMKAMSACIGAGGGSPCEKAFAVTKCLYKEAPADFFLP
How it was run: as §1

SfurOBP2 = SfurOBP2 (Sogatella furcifera, UniProt V5T759); test: biochemical; type: binding
SfurOBP2, sequence (V5T759 entry or part of it): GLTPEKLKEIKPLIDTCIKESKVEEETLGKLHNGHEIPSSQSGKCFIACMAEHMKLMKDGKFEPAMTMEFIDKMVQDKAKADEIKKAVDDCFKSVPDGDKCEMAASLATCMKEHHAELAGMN
How it was run: as §1

SfurOBP3 = SfurOBP3 (Sogatella furcifera, UniProt V5T818); test: biochemical; type: binding; details: for Fluorescence competitive binding assay, fluorescence intensity: OBP3, three replicate columns
SfurOBP3, sequence (V5T818 entry or part of it): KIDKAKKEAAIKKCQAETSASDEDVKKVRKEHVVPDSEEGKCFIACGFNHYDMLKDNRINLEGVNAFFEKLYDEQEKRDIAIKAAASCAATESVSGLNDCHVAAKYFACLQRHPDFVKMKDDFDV
How it was run: as §1

S. furcifera adults = test: Y-tube olfactometer behavioral trials; type: in vivo, Sogatella furcifera; details: odorant 50 µL/L vs hexane; adults
How it was run: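 Single S. furcifera adults (2 days post-emergence, starved 0.5 h) chose between odorant (100 µL of 50 µL/L on filter paper) and hexane control in a glass Y-tube, charcoal-filtered humidified air 300 mL/min per arm, 25 ± 1 °C, 50% RH. Choice scored if insect passed half an arm and stayed >1 min within 10 min; 45 insects per compound, chi-squared test.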

In the case of `CCCCCCCCCCCCC=O` [tridecanal], the “Fluorescence competitive binding assay, fluorescence intensity” value (SfurOBP1; ligand concentration 2 (μM)) is reported as 7938 and 8209 and 9100, the “Fluorescence competitive binding assay, fluorescence intensity” value (SfurOBP1; ligand concentration 4 (μM)) is reported as 8199 and 9497 and 8248 and the “Fluorescence competitive binding assay, fluorescence intensity” value (SfurOBP1; ligand concentration 6 (μM)) is reported as 9970 and 9490 and 9404. For the same compound, the “Fluorescence competitive binding assay, fluorescence intensity” value (SfurOBP1; ligand concentration 8 (μM)) was 9879 and 9942 and 9021, the “Fluorescence competitive binding assay, fluorescence intensity” value (SfurOBP1; ligand concentration 10 (μM)) was 11694 and 10870 and 12178 and the “Fluorescence competitive binding assay, fluorescence intensity” value (SfurOBP1; ligand concentration 12 (μM)) was 10792 and 13471 and 12081. The “Fluorescence competitive binding assay, fluorescence intensity” value (SfurOBP1; ligand concentration 14 (μM)) was 13762 and 12603 and 7069, the “Fluorescence competitive binding assay, fluorescence intensity” value (SfurOBP1; ligand concentration 16 (μM)) was 15566 and 12262 and 13672 and the “Fluorescence competitive binding assay, fluorescence intensity” value (SfurOBP1; ligand concentration 18 (μM)) was 13469 and 13374 and 13884. For the same compound, the “Fluorescence competitive binding assay, fluorescence intensity” value (SfurOBP1; ligand concentration 20 (μM)) was 16296 and 16551 and 15519, the IC50 (SfurOBP1; SfurOBP1, protein and 1-NPN both 2.0 µM, competitor 2-20 µM, read-out: IC50) was > 20 µM and the IC50 (SfurOBP11; SfurOBP11, protein and 1-NPN both 2.0 µM, competitor 2-20 µM, read-out: IC50) was > 20 µM. For the same compound, the “Fluorescence intensity, fluorescence competitive binding assay, OBP11” value (“Fluorescence intensity … OBP11” for short) (SfurOBP11; ligand concentration 2, replicate 1) was 24967, the “Fluorescence intensity … OBP11” value (SfurOBP11; ligand concentration 2, replicate 2) was 25926 and the “Fluorescence intensity … OBP11” value (SfurOBP11; ligand concentration 2, replicate 3) was 30699. For the same compound, the “Fluorescence intensity … OBP11” value (SfurOBP11; ligand concentration 4, replicate 1) was 25125, the “Fluorescence intensity … OBP11” value (SfurOBP11; ligand concentration 4, replicate 2) was 27382 and the “Fluorescence intensity … OBP11” value (SfurOBP11; ligand concentration 4, replicate 3) was 26896. The “Fluorescence intensity … OBP11” value (SfurOBP11; ligand concentration 6, replicate 1) was 26493, the “Fluorescence intensity … OBP11” value (SfurOBP11; ligand concentration 6, replicate 2) was 26335 and the “Fluorescence intensity … OBP11” value (SfurOBP11; ligand concentration 6, replicate 3) was 26650. For the same compound, the “Fluorescence intensity … OBP11” value (SfurOBP11; ligand concentration 8, replicate 1) was 24847, the “Fluorescence intensity … OBP11” value (SfurOBP11; ligand concentration 8, replicate 2) was 24250 and the “Fluorescence intensity … OBP11” value (SfurOBP11; ligand concentration 8, replicate 3) was 25420. The “Fluorescence intensity … OBP11” value (SfurOBP11; ligand concentration 10, replicate 1) was 24577, the “Fluorescence intensity … OBP11” value (SfurOBP11; ligand concentration 10, replicate 2) was 24121 and the “Fluorescence intensity … OBP11” value (SfurOBP11; ligand concentration 10, replicate 3) was 25032. The “Fluorescence intensity … OBP11” value (SfurOBP11; ligand concentration 12, replicate 1) was 26676, the “Fluorescence intensity … OBP11” value (SfurOBP11; ligand concentration 12, replicate 2) was 27183 and the “Fluorescence intensity … OBP11” value (SfurOBP11; ligand concentration 12, replicate 3) was 26168. For the same compound, the “Fluorescence intensity … OBP11” value (SfurOBP11; ligand concentration 14, replicate 1) was 24529, the “Fluorescence intensity … OBP11” value (SfurOBP11; ligand concentration 14, replicate 2) was 23823 and the “Fluorescence intensity … OBP11” value (SfurOBP11; ligand concentration 14, replicate 3) was 25235. The “Fluorescence intensity … OBP11” value (SfurOBP11; ligand concentration 16, replicate 1) was 23763, the “Fluorescence intensity … OBP11” value (SfurOBP11; ligand concentration 16, replicate 2) was 25792 and the “Fluorescence intensity … OBP11” value (SfurOBP11; ligand concentration 16, replicate 3) was 24713. The “Fluorescence intensity … OBP11” value (SfurOBP11; ligand concentration 18, replicate 1) was 29957, the “Fluorescence intensity … OBP11” value (SfurOBP11; ligand concentration 18, replicate 2) was 29942 and the “Fluorescence intensity … OBP11” value (SfurOBP11; ligand concentration 18, replicate 3) was 30678. For the same compound, the “Fluorescence intensity … OBP11” value (SfurOBP11; ligand concentration 20, replicate 1) was 31322, the “Fluorescence intensity … OBP11” value (SfurOBP11; ligand concentration 20, replicate 2) was 31721 and the “Fluorescence intensity … OBP11” value (SfurOBP11; ligand concentration 20, replicate 3) was 27795. The IC50 (SfurOBP2; SfurOBP2, protein and 1-NPN both 2.0 µM, competitor 2-20 µM, read-out: IC50) was > 20 µM, the “Fluorescence competitive binding assay, OBP2 (raw fluorescence reading)” value (SfurOBP2; ligand concentration 2 (unit not given), replicate column 1 of 3) was 15375 and the “Fluorescence competitive binding assay, OBP2 (raw fluorescence reading)” value (SfurOBP2; ligand concentration 2 (unit not given), replicate column 2 of 3) was 16260. For the same compound, the “Fluorescence competitive binding assay, OBP2 (raw fluorescence reading)” value (SfurOBP2; ligand concentration 2 (unit not given), replicate column 3 of 3) was 17114, the “Fluorescence competitive binding assay, OBP2 (raw fluorescence reading)” value (SfurOBP2; ligand concentration 4 (unit not given), replicate column 1 of 3) was 15250 and the “Fluorescence competitive binding assay, OBP2 (raw fluorescence reading)” value (SfurOBP2; ligand concentration 4 (unit not given), replicate column 2 of 3) was 17637. For the same compound, the “Fluorescence competitive binding assay, OBP2 (raw fluorescence reading)” value (SfurOBP2; ligand concentration 4 (unit not given), replicate column 3 of 3) was 17949, the “Fluorescence competitive binding assay, OBP2 (raw fluorescence reading)” value (SfurOBP2; ligand concentration 6 (unit not given), replicate column 1 of 3) was 17180 and the “Fluorescence competitive binding assay, OBP2 (raw fluorescence reading)” value (SfurOBP2; ligand concentration 6 (unit not given), replicate column 2 of 3) was 18194. The “Fluorescence competitive binding assay, OBP2 (raw fluorescence reading)” value (SfurOBP2; ligand concentration 6 (unit not given), replicate column 3 of 3) was 18919, the “Fluorescence competitive binding assay, OBP2 (raw fluorescence reading)” value (SfurOBP2; ligand concentration 8 (unit not given), replicate column 1 of 3) was 15100 and the “Fluorescence competitive binding assay, OBP2 (raw fluorescence reading)” value (SfurOBP2; ligand concentration 8 (unit not given), replicate column 2 of 3) was 16066. For the same compound, the “Fluorescence competitive binding assay, OBP2 (raw fluorescence reading)” value (SfurOBP2; ligand concentration 8 (unit not given), replicate column 3 of 3) was 16289, the “Fluorescence competitive binding assay, OBP2 (raw fluorescence reading)” value (SfurOBP2; ligand concentration 10 (unit not given), replicate column 1 of 3) was 16213 and the “Fluorescence competitive binding assay, OBP2 (raw fluorescence reading)” value (SfurOBP2; ligand concentration 10 (unit not given), replicate column 2 of 3) was 16940. The “Fluorescence competitive binding assay, OBP2 (raw fluorescence reading)” value (SfurOBP2; ligand concentration 10 (unit not given), replicate column 3 of 3) was 17695, the “Fluorescence competitive binding assay, OBP2 (raw fluorescence reading)” value (SfurOBP2; ligand concentration 12 (unit not given), replicate column 1 of 3) was 14964 and the “Fluorescence competitive binding assay, OBP2 (raw fluorescence reading)” value (SfurOBP2; ligand concentration 12 (unit not given), replicate column 2 of 3) was 18259. The “Fluorescence competitive binding assay, OBP2 (raw fluorescence reading)” value (SfurOBP2; ligand concentration 12 (unit not given), replicate column 3 of 3) was 16491, the “Fluorescence competitive binding assay, OBP2 (raw fluorescence reading)” value (SfurOBP2; ligand concentration 14 (unit not given), replicate column 1 of 3) was 16687 and the “Fluorescence competitive binding assay, OBP2 (raw fluorescence reading)” value (SfurOBP2; ligand concentration 14 (unit not given), replicate column 2 of 3) was 18876. The “Fluorescence competitive binding assay, OBP2 (raw fluorescence reading)” value (SfurOBP2; ligand concentration 14 (unit not given), replicate column 3 of 3) was 18074, the “Fluorescence competitive binding assay, OBP2 (raw fluorescence reading)” value (SfurOBP2; ligand concentration 16 (unit not given), replicate column 1 of 3) was 17882 and the “Fluorescence competitive binding assay, OBP2 (raw fluorescence reading)” value (SfurOBP2; ligand concentration 16 (unit not given), replicate column 2 of 3) was 16512. For the same compound, the “Fluorescence competitive binding assay, OBP2 (raw fluorescence reading)” value (SfurOBP2; ligand concentration 16 (unit not given), replicate column 3 of 3) was 18645, the “Fluorescence competitive binding assay, OBP2 (raw fluorescence reading)” value (SfurOBP2; ligand concentration 18 (unit not given), replicate column 1 of 3) was 18334 and the “Fluorescence competitive binding assay, OBP2 (raw fluorescence reading)” value (SfurOBP2; ligand concentration 18 (unit not given), replicate column 2 of 3) was 17452. The “Fluorescence competitive binding assay, OBP2 (raw fluorescence reading)” value (SfurOBP2; ligand concentration 18 (unit not given), replicate column 3 of 3) was 17782, the “Fluorescence competitive binding assay, OBP2 (raw fluorescence reading)” value (SfurOBP2; ligand concentration 20 (unit not given), replicate column 1 of 3) was 16896 and the “Fluorescence competitive binding assay, OBP2 (raw fluorescence reading)” value (SfurOBP2; ligand concentration 20 (unit not given), replicate column 2 of 3) was 19235. The “Fluorescence competitive binding assay, OBP2 (raw fluorescence reading)” value (SfurOBP2; ligand concentration 20 (unit not given), replicate column 3 of 3) was 19174, the “Fluorescence competitive binding assay, fluorescence intensity” value (SfurOBP3; ligand concentration 2) was 42528 and 41583 and 43473 and the “Fluorescence competitive binding assay, fluorescence intensity” value (SfurOBP3; ligand concentration 4) was 41210 and 39055 and 38819. The “Fluorescence competitive binding assay, fluorescence intensity” value (SfurOBP3; ligand concentration 6) was 40763 and 42069 and 38391, the “Fluorescence competitive binding assay, fluorescence intensity” value (SfurOBP3; ligand concentration 8) was 40006 and 42611 and 39486 and the “Fluorescence competitive binding assay, fluorescence intensity” value (SfurOBP3; ligand concentration 10) was 37952 and 40731 and 37192. For the same compound, the “Fluorescence competitive binding assay, fluorescence intensity” value (SfurOBP3; ligand concentration 12) was 41103 and 37710 and 38844, the “Fluorescence competitive binding assay, fluorescence intensity” value (SfurOBP3; ligand concentration 14) was 39070 and 39869 and 40524 and the “Fluorescence competitive binding assay, fluorescence intensity” value (SfurOBP3; ligand concentration 16) was 39064 and 38170 and 38620. For the same compound, the “Fluorescence competitive binding assay, fluorescence intensity” value (SfurOBP3; ligand concentration 18) was 39885 and 40160 and 39604, the “Fluorescence competitive binding assay, fluorescence intensity” value (SfurOBP3; ligand concentration 20) was 39750 and 40400 and 40150 and the IC50 (SfurOBP3; SfurOBP3, protein and 1-NPN both 2.0 µM, competitor 2-20 µM, read-out: IC50) was > 20 µM. The “number of insects choosing hexane arm” value (S. furcifera adults) was 11, the “number of insects choosing volatilies arm” value (S. furcifera adults) was 13 and the “number of insects failed (no choice)” value (S. furcifera adults) was 16.
